Measurements published in publication PMC5458211, “Mitochondrial VDAC1-based peptides: Attacking oncogenic properties in glioblastoma” (Oncotarget, 2017).
Non-standard residues stand in square brackets, D forms with d. Residues, ends and D or L forms follow the SMILES beside them.

Key:
U-118MG cells = experiment: Cell death by PI staining and flow cytometry, U-118MG; assay type: cell-based, human; conditions: 6 h at 37°C, serum-free medium, means ± SD (n=3), Fig 1H, read-out: IC50 for inducing cell death
Description: Figure 1 VDAC1-based peptides induce dramatic cell death of several brain tumor-derived cell lines but to lesser extent in primary brain cells A. IHC staining of VDAC1 of human normal brain (n=13) or glioblastoma (n=41) in tissue array slides (Biomax), as described in Materials and methods available online in Supplemental information. Percentages of sections stained at the intensity indicated are shown. […] The VDAC1-derived sequences Δ(1-14)N-terminus and LP4 are in green and pink, respectively. The cell-penetrating peptides Antp and Tf are in orange and blue, respectively. The loop shape of LP4 stabilized by a tryptophan zipper is in purple. The amino acids of Δ(1-14)N-terminus, LP4 and Antp are in the D configuration. The sequences of D-LP4 and Retro-D-LP4 are presented below. C. […] Cells were harvested, washed twice with PBS and cell death was analyzed by propidium iodide (PI) staining and flow cytometry. […] Cells were harvested, washed twice with PBS and cell death was analyzed by PI staining and flow cytometry. […]
Cells (6×10^5 /ml) were incubated in 500 μl serum-free medium with the peptide of interest for 6 h at 37°C in the presence of 5% CO2. The cells were then trypsinized, centrifuged (1500xg, 5 min), washed with PBS and analyzed for cell death using propidium iodide (PI) staining and flow cytometer (Beckton-Dickinson, San Jose, CA) and BD CellQuest Pro software. […]

HK-I-GFP = HK-I-GFP detachment from mitochondria by confocal microscopy, SH-SY5Y; assay type: cell-based, human; conditions: 7 μM, 3 h, serum-free medium, Suppl Fig 2A
Experimental: Mitochondrial VDAC1-based peptides: Attacking oncogenic properties in glioblastoma […]
Cell culture cells were fixed for 15 min using 4% paraformaldehyde prepared in PBS, rinsed with PBS, permabilized with 0.3%
Human glioblastoma U-87MG, U-118MG, CRL- PBST, and stained with DAPI (1:2000). Cell imaging was 2610 (LN-18), U-251MG, human neuroblastoma SH- carried out by confocal microscopy (Olympus 1X81).
SY5Y, mouse glioma GL-261 and mouse neuroblastoma […]
Cellular ATP levels were estimated using a luciferase-based assay (CellTiter-Glo, Promega). […] ATP levels were cytosol was analyzed by immunoblotting. […]
luminescence was recorded using an Infinite M1000 plate peptide (3, 5, 10 μM for 3h), harvested, washed with reader (Tecan, Männedorf, Switzerland). […]
ﬂuoride) containing 0.02% digitonin and incubated for Mitochondrial membrane potential (ΔΨ) was 10 min on ice. Samples were centrifuged at 12,000xg at determined using tetramethylrhodamine methylester 4°C for 10 min to obtain supernatants (cytosolic extracts (TMRM) dye. U-87MG cells (6×10^5/ml) were incubated free of mitochondria) that were analyzed by SDS-PAGE with the indicated concentrations of D-ΔN-Ter-Antp and immuno-probed using anti-hexokinase antibodies, peptide for 3 h, washed twice with PBS, incubated with and then with secondary HRP-conjugated anti-rabbit tetramethylrhodamine methyl ester (TMRM, 800 nM, antibodies. […]

Structure (SMILES): CC[C@@H](C)[C@@H](NC(=O)[C@@H](CCCCN)NC(=O)[C@H](NC(=O)[C@@H](CCC(N)=O)NC(=O)[C@@H](CCCNC(=N)N)NC(=O)[C@@H](CC(C)C)NC(=O)CNC(=O)[C@@H](Cc1ccccc1)NC(=O)CNC(=O)[C@@H](Cc1ccc(O)cc1)NC(=O)CNC(=O)[C@@H](CCCCN)NC(=O)[C@H](NC(=O)[C@@H](Cc1ccccc1)NC(=O)[C@H](NC(=O)[C@@H](CC(=O)O)NC(=O)[C@H](N)CCCNC(=N)N)C(C)C)[C@H](C)O)[C@H](C)CC)C(=O)N[C@H](Cc1c[nH]c2ccccc12)C(=O)N[C@H](Cc1ccccc1)C(=O)N[C@H](CCC(N)=O)C(=O)N[C@H](CC(N)=O)C(=O)N[C@H](CCCNC(=N)N)C(=O)N[C@H](CCCNC(=N)N)C(=O)N[C@H](CCSC)C(=O)N[C@H](CCCCN)C(=O)N[C@H](Cc1c[nH]c2ccccc12)C(=O)N[C@H](CCCCN)C(=O)N[C@H](CCCCN)C(=O)O [D-ΔN-Ter-Antp] (H-[dR][dD][dV][dF][dT][dK]G[dY]G[dF]G[dL][dR][dQ][dI][dK][dI][dW][dF][dQ][dN][dR][dR][dM][dK][dW][dK][dK]-OH; N-terminus and C-terminus assumed)
- IC50 (U-118MG cells): 5 ± 0.6 µM
- HK-I-GFP detachment (fluorescence distribution) (HK-I-GFP): became diffuse

Structure (SMILES): CC[C@H](C)[C@H](NC(=O)[C@H](C)NC(=O)[C@@H](N)Cc1c[nH]cn1)C(=O)N[C@@H](Cc1ccc(O)cc1)C(=O)N1CCC[C@H]1C(=O)N[C@@H](CCCNC(=N)N)C(=O)N[C@@H](Cc1c[nH]cn1)C(=O)N[C@@H](CO)C(=O)N[C@@H](Cc1c[nH]c2ccccc12)C(=O)N[C@H](C(=O)N[C@@H](Cc1c[nH]c2ccccc12)C(=O)N[C@@H](CCC(=O)O)C(=O)N[C@H](CCCCN)C(=O)N[C@H](CCCCN)C(=O)N[C@H](CC(C)C)C(=O)N[C@H](CCC(=O)O)C(=O)N[C@@H](C(=O)N[C@H](C)C(=O)N[C@@H](C(=O)N[C@H](CC(N)=O)C(=O)N[C@H](CC(C)C)C(=O)N[C@H](C)C(=O)N[C@H](Cc1c[nH]c2ccccc12)C(=O)N[C@@H](C(=O)N[C@H](C)C(=O)NCC(=O)N[C@H](CC(N)=O)C(=O)N[C@H](CO)C(=O)N[C@H](CC(N)=O)C(=O)N[C@@H](CCCCN)C(=O)N[C@@H](Cc1c[nH]c2ccccc12)C(=O)N[C@H](C(=O)N[C@@H](Cc1c[nH]c2ccccc12)C(=O)N[C@@H](CCCCN)C(=O)O)[C@@H](C)O)[C@H](C)O)C(C)C)[C@H](C)O)[C@@H](C)O [Tf-D-LP4]
- IC50 (U-118MG cells): 1.7 ± 0.3 µM
- HK-I-GFP detachment (fluorescence distribution) (HK-I-GFP): became diffuse
